Measured values published in publication PMC11461078 (Oxidative Medicine and Cellular Longevity, 2024).
Read-outs that look alike come from different tables or passages of the source.

Assays:
CCF-STTG1 cells [1] = test: Cell viability (MTT) under oxidative stress (200 µM H2O2 pretreatment); type: cell-based, human; settings: H2O2 200 μM
Experimental: In a second set of experiments, the CCF-STTG1 cell line was pretreated with 200 µM H2O2 for 30 min to explore the effects of the combination under oxidative stress conditions compared to the single agents by analysing cell viability, ROS, and NO productions. In addition, inflammatory biomarkers (TNFα and IL-2), BDNF production, and intracellular apoptotic and neurodegenerative markers activated were also analysed by ELISA kit.
A 96-well plate was used to measure cell viability of CCF-STTG1 cells after each stimulation using MTT-based In Vitro Toxicology Assay Kit (Merck Life Science, Milan, Italy), as reported in the literature. After stimulating cells, 1% MTT dye was incubated at 37°C in an incubator with 5% CO2 and 95% humidity, and purple formazan crystals were dissolved in MTT solubilisation solution after 2 hr. In addition, during the quantification, the background interference due to the extract was considered by making an empty sample (without cells but with the treatment), which was subtracted. To assess cell viability, absorbance at 570 nm with 690 nm correction was measured using a spectrometer (Infinite 200 Pro MPlex, Tecan, Männedorf, Switzerland) and compared to the control (0 line, which is 100% viable cells) and expressed in percentage.

CCF-STTG1 cells [2] = test: ROS production (cytochrome C reduction) under oxidative stress; type: cell-based, human; settings: for reduction of ROS production compared to H2O2 200 μM: H2O2 200 μM pretreatment, 24 hr treatment, green tea 100 μM, saffron 25 μM, citicoline 100 μM, trans-R 1 µM, MIX
Experimental: In a second set of experiments, the CCF-STTG1 cell line was pretreated with 200 μM H2O2 for 30 min to explore the effects of the combination under oxidative stress conditions compared to the single agents by analysing cell viability, ROS, and NO productions. In addition, inflammatory biomarkers (TNFα and IL-2), BDNF production, and intracellular apoptotic and neurodegenerative markers activated were also analysed by ELISA kit. A standard procedure based on cytochrome C reduction on CCF-STTG1 cells quantified superoxide anion release. After treatment, 100 μL of cytochrome C (1 mg/mL, Merck Life Science, Rome, Italy) and 100 μL of superoxide dismutase (0.1 mg/mL, Merck Life Science, Rome, Italy) were added to each sample for 30 min in an incubator. At 550 nm, a spectrophotometer (Infinite 200 […], Männedorf, Switzerland) assessed absorbance in cell culture supernatants. O2 rate was represented as the mean SD (%) of nanomoles per decreased cytochrome C per microgram of protein relative to the control (0 line).

BDNF = BDNF quantification ELISA under oxidative stress; type: cell-based, human; settings: H2O2 200 μM
Experimental: (§1) Human BDNF ELISA Kit (Thermo ScientificTM, Waltham, MA, United States) quantified BDNF in CCF-STTG1 cell supernatants following the manufacturer's instructions. Each well received a biotinylated detection antibody, and the plate was incubated at room temperature for 1 hr. After 45 min of HRP-conjugated streptavidin incubation, TMB substrate solution was added for 30 min, and a stop solution terminated the reaction. To calculate BDNF concentration, absorbance was measured at 450 nm using a spectrometer (Infinite 200 Pro MPlex, Tecan, Männedorf, Switzerland) and compared to the standard curve (0.066–16 ng/mL). The data are presented as mean ± SD (%) compared to the untreated control sample. The cells were also given 10 ng/mL BDNF as a positive control.
as §1, with “Elisa” for “ELISA”, “The data are presented as mean ± SD (%) compared to the untreated control sample. The cells were also given 10 ng/mL BDNF as a positive control.” left out

[3] = system: BBB in vitro model (CCF-STTG1 cocultured with HUVEC on Transwells); settings: human
human = system: human; set-up: method as in PMID 23403474; settings: 500 mg per day for 2 weeks; cited from earlier work
rats = system: rats; set-up: method as in PMID 29470767; settings: tramadol toxicity, 30 mg/kg orally for 28 consecutive days; cited from earlier work
pTau = test: Tau (Phospho) [pS199] ELISA under oxidative stress; type: cell-based, human; settings: H2O2 200 μM pretreatment
Experimental: Tau (Pospho) protein was investigated by Tau (Phospho) [[…]] Human ELISA Kit (Thermo ScientificTM, Waltham, MA, USA) on CCF-STTG1 cell lysates. In summary, 100 μL of each sample was added to the plate, incubated at 37°C for 90 min, removed, and washed three times. Next, add 100 μL of detection solution A to each well and incubate at 37°C for 45 min. Post-incubation, wash wells, add 100 μL detection solution B, and incubate at 37°C for 45 min. After adding 90 μL of substrate solution, the plate was incubated at 37°C for 20 min in the dark. The reaction was stopped with 50 μL of stop solution, and the absorbance was measured at 450 nm using a spectrometer (Infinite 200 […], Männedorf, Switzerland). Results are shown as mean SD (%) relative to the control, and concentration is reported in ng/mL by comparing data to the standard curve (15.6-1,000 pg/mL).

Compound	reduction of ROS production compared to H2O2 200 μM (CCF-STTG1 cells [2])	Permeability values (Papp) ([3]; 4 h)	Permeability values (Papp) ([3]; 12 h)	Permeability values (Papp) ([3]; 24 h)	other results
OO [H2O2]					decrease in cell viability compared to the control (CCF-STTG1 cells [1]): about 22%; increase in ROS production compared to the control (CCF-STTG1 cells [2]; H2O2 200 μM): about 42%; reduction of BDNF production vs control (BDNF): ~ 30%
C[N+](C)(C)CCOP(=O)(O)OP(=O)([O-])OC[C@H]1O[C@@H](n2ccc(N)nc2=O)[C@H](O)[C@@H]1O [citicoline, cytidine diphosphate (CDP)-choline]	about 37%	0.2 ×10⁻⁶ cm/s	0.58 ×10⁻⁶ cm/s	0.44 ×10⁻⁶ cm/s	serum malondialdehyde (MDA) levels (human): significantly decreased; vigilance, visual working memory, oxidative stress markers compared to placebo (human): improve human vigilance, visual working memory, and oxidative stress markers
CC(/C=C/C=C(\C)C(=O)O[C@@H]1O[C@H](CO[C@@H]2O[C@H](CO)[C@@H](O)[C@H](O)[C@H]2O)[C@@H](O)[C@H](O)[C@H]1O)=C\C=C\C=C(C)\C=C\C=C(/C)C(=O)O[C@@H]1O[C@H](CO[C@@H]2O[C@H](CO)[C@@H](O)[C@H](O)[C@H]2O)[C@@H](O)[C@H](O)[C@H]1O [crocin]					learning and memory (rats): improved learning and memory
Oc1ccc(/C=C/c2cc(O)cc(O)c2)cc1 [trans-R, trans-Resveratrol]	about 46%	0.2 ×10⁻⁶ cm/s	0.83 ×10⁻⁶ cm/s	0.53 ×10⁻⁶ cm/s	pTau expression (in words) (pTau): inhibits its expression, similar to the MIX
